Like-named read-outs stand apart in the source and are kept apart here.
Key:
PAMPA permeability = type: in vitro ADME
Solubility at pH 7.4 = type: physicochemical
[1] = tested on: Stage III-V gametocytes (blood stage P. falciparum parasites); assay: In vitro drug activity on gametocytes (AlamarBlue viability assay); type: cell-based, Plasmodium falciparum; conditions: read-out: Gametocyte EC50
How it was run: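 P. falciparum 3D7 stage III–V gametocytes (also HB3, Dd2), enriched by 50 mM N-acetylglucosamine and Percoll gradient, seeded at 20,000/well with compound for 72 h at 37° C, 5% CO2. AlamarBlue then added for 24 h; viability read as fluorescence (Ex 525, Em 598 nm).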

[2] = tested on: Asexual parasites of P. falciparum strain 3D7; assay: In vitro drug activity on asexual parasites (SYBR Green assay); type: cell-based, Plasmodium falciparum
How it was run: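 3D7 parasites at 0.5% parasitemia and 2% hematocrit were exposed to drugs (DMSO ≤0.5%) for 72 h under standard culture conditions, in duplicate. After freeze-thaw lysis, SYBR Green I lysis buffer was added for 30 min at room temperature, and fluorescence was read at 490/520 nm.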

mTOR = mTOR (Homo sapiens, UniProt P42345); assay: mTOR activity (no method described); type: biochemical
[3] = Microsomal stability (rat); type: in vitro ADME; conditions: rat microsomes
[4] = P. falciparum stage III-V gametocytes, 72 h incubation, AlamarBlue
[5] = P. falciparum 3D7 asexual parasites, 72 h, SYBR Green

| Structure (SMILES) | PAMPA Permeability (PAMPA permeability) [×10⁻⁶ cm/s] | Sol @ pH 7.4 (Solubility at pH 7.4) [ug/mL] | EC50 [1] [nM] | EC50 [2] [nM] | mTOR (mTOR) [nM] | Microsomal Stability (rat) T1/2 [3] [min] | PAMPA Permeability (×10^6 cm/s) (PAMPA permeability) | Sol @ pH 7.4 (ug/mL) (Solubility at pH 7.4) | EC50 [1, 4] [nM] | EC50 [2, 5] [nM] |
| --- | --- | --- | --- | --- | --- | --- | --- | --- | --- | --- |
| Cc1cc(C(=O)NC2CC2)ccc1-n1c(=O)ccc2cnc3ccc(-c4ccc(Cl)cc4)cc3c21 [Compound 88] | 117 | 0.51 | 141 | 56.7 | 1841 |  |  |  |  |  |
| Cc1cccc(-c2ccc3ncc4ccc(=O)n(-c5ccc(C(=O)N6CCOCC6)cc5)c4c3c2)c1 [Compound 121] | 243 |  | 443 | 221 | 522.6 | 5.4 |  |  |  |  |
| O=C(c1ccc(-n2c(=O)ccc3cnc4ccc(-c5cccc(Cl)c5)cc4c32)cc1)N1CCOCC1 [Compound 122] | 822 |  | 371 | 261 | 1303 | 5.4 |  |  |  |  |
| N#Cc1cccc(-c2ccc3ncc4ccc(=O)n(-c5ccc(C(=O)N6CCOCC6)cc5)c4c3c2)c1 [Compound 124] | 20.4 |  | 349 | 144 | 1357 | 19.7 |  |  |  |  |
| O=Cc1ccc(-c2ccc3ncc4ccc(=O)n(-c5ccc(C(=O)N6CCOCC6)cc5)c4c3c2)cc1 [Compound 169] | 204 | 2.8 | 630 | 301 | 631.5 |  |  |  |  |  |
| CN(C)Cc1cccc(-c2ccc3ncc4ccc(=O)n(-c5ccc(C(=O)N6CCOCC6)cc5)c4c3c2)c1 [Compound 173] | 366 | >77.00 | 2530 |  | 100000 |  |  |  |  |  |
| COc1cc(C(=O)NC2CC2)ccc1-n1c(=O)ccc2cnc3ccc(-c4ccc(F)cc4)cc3c21 [Compound 188] | 1250 | <1 | 602 |  | 7201 | 21.5 |  |  |  |  |
| O=C(c1ccc(-n2c(=O)ccc3cnc4ccc(-c5ccc(CN6CCC6)cc5)cc4c32)cc1)N1CCOCC1 [Compound 189] | 212 | >78 | 358 |  | 6514 | >30 |  |  |  |  |
| COc1cc(C(=O)NC2CC2)ccc1-n1c(=O)ccc2cnc3ccc(-c4ccc(Cl)cc4)cc3c21 [Compound 191] | 606 | 2.4 | 172 |  | 4337 | 26.7 |  |  |  |  |
| COc1cc(C(=O)N2CCOCC2)ccc1-n1c(=O)ccc2cnc3ccc(-c4ccc(CN(C)C)cc4)cc3c21 [Compound 193] | 162 | >81 | 814 |  | 8290 | >30 |  |  |  |  |
| COc1cc(C(=O)N2CCOCC2)ccc1-n1c(=O)ccc2cnc3ccc(-c4ccc(F)cc4)cc3c21 [Compound 194] | 1080 | <1 | 702 |  | 100000 | 6.9 |  |  |  |  |
| CC1CC1NC(=O)c1ccc(-n2c(=O)ccc3cnc4ccc(-c5ccc(N)nc5)cc4c32)cc1 (stereo not drawn) [Compound 338] | 141 | 0.32 | 65.9 |  | 150.5 |  |  |  |  |  |
| CN(C)Cc1ccc(-c2ccc3ncc4ccc(=O)n(-c5ccc6c(c5)CN(C)C6=O)c4c3c2)cc1 [Compound 347] |  |  |  |  |  | >30.0 | 317.6 ×10^6 cm/s | >70.0 | 1720 | 668 |
| CCN1Cc2cc(-n3c(=O)ccc4cnc5ccc(-c6ccc(CN(C)C)cc6)cc5c43)ccc2C1=O [Compound 348] |  |  |  |  |  | >30.0 | 289.4 ×10^6 cm/s | >72.0 | 2450 | 1460 |
| CN(C)Cc1ccc(-c2ccc3ncc4ccc(=O)n(-c5ccc6c(c5)C(=O)NC6)c4c3c2)cc1 [Compound 349] |  |  |  |  |  | >30.0 | 2.5 ×10^6 cm/s | >68.0 | 26800 | 14200 |
| CN(C)Cc1ccc(-c2ccc3ncc4ccc(=O)n(-c5ccc6c(c5)CN(C5CC5)C6=O)c4c3c2)cc1 [Compound 354] |  |  |  |  |  | >30.0 | 292.3 ×10^6 cm/s | >74.0 | 1910 | 687 |
| CN(C)Cc1ccc(-c2ccc3ncc4ccc(=O)n(-c5ccc6c(c5)CCC(=O)N6)c4c3c2)cc1 [Compound 357] |  |  |  |  |  | >30.00 | 40.53 ×10^6 cm/s | >70.00 | 2200 | 863 |

| Structure (SMILES) | PAMPA Permeability (PAMPA permeability) [×10⁻⁶ cm/s] | Sol @ pH 7.4 (Solubility at pH 7.4) [ug/mL] | EC50 [1] [nM] | EC50 [2] [nM] | mTOR (mTOR) [nM] | Microsomal Stability (rat) T1/2 [3] [min] | PAMPA Permeability (×10^6 cm/s) (PAMPA permeability) | Sol @ pH 7.4 (ug/mL) (Solubility at pH 7.4) | EC50 [1, 4] [nM] | EC50 [2, 5] [nM] |
| --- | --- | --- | --- | --- | --- | --- | --- | --- | --- | --- |
| CN1Cc2cc(-n3c(=O)ccc4cnc5ccc(-c6ccc(F)cc6)cc5c43)ccc2C1=O [Compound 360] |  |  |  |  |  | 19.2 | 635.05 ×10^6 cm/s | 0.73 | 736 | 170 |
| CCN1Cc2cc(-n3c(=O)ccc4cnc5ccc(-c6ccc(F)cc6)cc5c43)ccc2C1=O [Compound 361] |  |  |  |  |  | >30.00 | 199.84 ×10^6 cm/s | <0.10 | 6440 | 1580 |
| O=C1NCc2cc(-n3c(=O)ccc4cnc5ccc(-c6ccc(F)cc6)cc5c43)ccc21 [Compound 362] |  |  |  |  |  | 7.4 | 98.56 ×10^6 cm/s | 0.6 | 81.7 | 8.86 |
| NC1(c2ccc(-c3ccc4ncc5ccc(=O)n(-c6ccc7c(c6)CNC7=O)c5c4c3)cc2)CCC1 [Compound 368] |  |  |  |  |  | >30 | 2.9 ×10^6 cm/s | 6.5 | 2200 | 1280 |
| O=C1NCc2cc(-n3c(=O)ccc4cnc5ccc(-c6ccc(CN7CCOCC7)cc6)cc5c43)ccc21 [Compound 369] |  |  |  |  |  | 26 | 55 ×10^6 cm/s | 15.7 | 2940 | 1230 |
| NCc1cccc(-c2ccc3ncc4ccc(=O)n(-c5ccc6c(c5)CNC6=O)c4c3c2)c1 [Compound 370] |  |  |  |  |  | >30 | <1 ×10^6 cm/s | 27.3 | 4120 | 296 |
| O=C1NCc2cc(-n3c(=O)ccc4cnc5ccc(-c6ccc(CN7CCCC7)cc6)cc5c43)ccc21 [Compound 371] |  |  |  |  |  | >30 | 1.2 ×10^6 cm/s | 45.3 | 2470 | 472 |
| O=C1NCc2cc(-n3c(=O)ccc4cnc5ccc(-c6ccc(CCN7CCOCC7)cc6)cc5c43)ccc21 [Compound 372] |  |  |  |  |  | >30 | <1 ×10^6 cm/s | <1 | 1050 | 540 |
| NC1(c2ccc(-c3ccc4ncc5ccc(=O)n(-c6ccc7c(c6)CNC7=O)c5c4c3)cc2)CC1 [Compound 373] |  |  |  |  |  | >30 | <6.3 ×10^6 cm/s | 3.3 | 45.7 | 350 |
| CN(C)Cc1ccc(-c2ccc3ncc4ccc(=O)n(-c5ccc6c(c5)NC(=O)C6)c4c3c2)cc1 [Compound 374] |  |  |  |  |  | >30 | <1.6 ×10^6 cm/s | 52.5 | 12900 | 4180 |
| CN(C)CCc1ccc(-c2ccc3ncc4ccc(=O)n(-c5ccc6c(c5)CNC6=O)c4c3c2)cc1 [Compound 375] |  |  |  |  |  | >30 | <1.1 ×10^6 cm/s | 13.1 | 715 | 389 |
| Nc1ccc(-c2ccc3ncc4ccc(=O)n(-c5ccc6c(c5)C(=O)NC6)c4c3c2)cn1 [Compound 387] |  |  |  |  |  | >30.0 | <4.1 ×10^6 cm/s | 1.4 | 1840 | 316 |
| Nc1ccc(-c2ccc3ncc4ccc(=O)n(-c5ccc6c(c5)CN(C5CC5)C6=O)c4c3c2)cn1 [Compound 390] |  |  |  |  |  | >30.0 | 25 ×10^6 cm/s | 4.2 | 116 | 75.2 |
| CN1C(=O)CCc2cc(-n3c(=O)ccc4cnc5ccc(-c6ccc(N)nc6)cc5c43)ccc21 [Compound 392] |  |  |  |  |  | >30.00 | 133.39 ×10^6 cm/s | 33.81 | 46.1 | 22 |
| Nc1ccc(-c2ccc3ncc4ccc(=O)n(-c5ccc6c(c5)NC(=O)C6)c4c3c2)cn1 [Compound 394] |  |  |  |  |  | >30 | <1 ×10^6 cm/s | <1 | 438 | 130 |
| Cn1c(=O)n(-c2ccc(N3CCN(CCO)CC3)c(C#N)c2)c2c3cc(-c4ccc(Cl)cc4)ccc3ncc21 [Compound 417] | < 1 | <1 | 36.5 |  | 319 |  |  |  |  |  |
